Assay results as given in patent US12692547B2, “Methods of treating cancers containing fusion genes” (UNIVERSITY OF PITTSBURGH—OF THE COMMONWEALTH SYSTEM OF …, priority 2016, dated 2026).

Tests used:
[1] = tested on: PMF cells (PC3 with inducible MAN2A1-FER-FLAG); assay: Cell death by Annexin V and propidium iodide staining, PMF cells; type: cell-based; settings: Homo sapiens
Text: (§1) FIG. 18. […] Factions of cell death were then quantified by Annexin V and propridium iodide staining. […] Factions of cell death were then quantified by Annexin V and propridium iodide staining. […] Factions of cell death were then quantified by Annexin V and propridium iodide staining.
(§2) Since the kinase activity of MAN2A1-FER and EGFR activation are the drivers of MAN2A1-FER oncogenic activity, it is of interest to examine whether inhibition of the kinase activity of MAN2A1-FER or EGFR interrupts the oncogenic activity of MAN2A1-FER, and thus the growth of the tumors.

[2] = tested on: GMF cells (A-172 with inducible MAN2A1-FER-FLAG); assay: Cell death by Annexin V and propidium iodide staining, GMF cells; type: cell-based; settings: Homo sapiens, A 172, GMF cells
Text: as §1, §2

[3] = tested on: HUH7 cells; assay: Cell death by Annexin V and propidium iodide staining, HUH7 cells and MAN2A1-FER knockout counterpart; type: cell-based; settings: Homo sapiens
Text: as §1, §2

[4] = tested on: PC3, A-172 or HUH7 with or without MAN2A1-FER; assay: Killing of cancer cell lines with or without MAN2A1-FER (summary over cell lines); type: cell-based; settings: Homo sapiens, read-out: IC50 values (50% inhibitory concentrations)
Text: as §1, §2

[5] = tested on: PC3 cells xenograft; assay: Kinase inhibitor treatment of SCID mice xenografted with PC3 (PMF) cells; type: in vivo, mouse; settings: for reduction of final tumor size: PC3, MAN2A1-FER present, vs DMSO controls, crizotinib 12.5 mg/kg, canertinib 10 mg/kg, 3 times a week, peritoneal injection
Text: (§3) Treatment of Severe Combined Immunodeficient Mice Xenografted With Cancer Cells. For kinase inhibitor treatment experiments, PMF, GMF, HUH7, and HUH7/ko cells (2×10^7 cells) were xenografted into the subcutaneous region of SCID mice. […] Serial sections of formalin-fixed, paraffin-embedded lung, brain, liver, kidney, vertebra, and lymph node specimens were collected, stained with H&E, and examined microscopically.

[6] = tested on: A-172 cells xenograft; assay: Kinase inhibitor treatment of SCID mice xenografted with A-172 (GMF) cells; type: in vivo, mouse; settings: for reduction of final tumor size: A-172, MAN2A1-FER present, vs DMSO controls, crizotinib 12.5 mg/kg, canertinib 10 mg/kg, 3 times a week, peritoneal injection
Text: as §3

[7] = tested on: HUH7 cells xenograft; assay: Kinase inhibitor treatment of SCID mice xenografted with HUH7 or HUH7/ko cells; type: in vivo, mouse; settings: for reduction of final tumor size: HUH7, MAN2A1-FER present, vs DMSO controls, crizotinib 12.5 mg/kg, canertinib 10 mg/kg, 3 times a week, peritoneal injection
Text: as §3

[8] = tested on: PC3, A-172 and HUH7 xenografted tumors; assay: Metastasis and mortality of treated SCID mice, all tumors pooled; type: in vivo, mouse; settings: for mortality of xenografted mice: tumors positive for MAN2A1-FER
Text: as §3

[9] = biological target: T1, GST-MAN2A1-FER (Homo sapiens, UniProt P16591); assay: Phosphorylation of HisTAG-EGFR aa1-650 by GST-MAN2A1-FER with excessive peptide; type: biochemical; settings: excessive amount of peptide; HisTAG-EGFR aa1-650 substrate
T1 construct: while leaving the tyrosine kinase domain in FER largely intact; MAN2A1 N-terminal 703 amino acids (fusion partner, itself N-terminally GST-tagged); made in house; host or cells: Escherichia coli BL21; the other entry of the earlier key: MAN2A1 (Q16706, Alpha-mannosidase 2)
T1 sequence (P16591 with tags, fused parts or gaps): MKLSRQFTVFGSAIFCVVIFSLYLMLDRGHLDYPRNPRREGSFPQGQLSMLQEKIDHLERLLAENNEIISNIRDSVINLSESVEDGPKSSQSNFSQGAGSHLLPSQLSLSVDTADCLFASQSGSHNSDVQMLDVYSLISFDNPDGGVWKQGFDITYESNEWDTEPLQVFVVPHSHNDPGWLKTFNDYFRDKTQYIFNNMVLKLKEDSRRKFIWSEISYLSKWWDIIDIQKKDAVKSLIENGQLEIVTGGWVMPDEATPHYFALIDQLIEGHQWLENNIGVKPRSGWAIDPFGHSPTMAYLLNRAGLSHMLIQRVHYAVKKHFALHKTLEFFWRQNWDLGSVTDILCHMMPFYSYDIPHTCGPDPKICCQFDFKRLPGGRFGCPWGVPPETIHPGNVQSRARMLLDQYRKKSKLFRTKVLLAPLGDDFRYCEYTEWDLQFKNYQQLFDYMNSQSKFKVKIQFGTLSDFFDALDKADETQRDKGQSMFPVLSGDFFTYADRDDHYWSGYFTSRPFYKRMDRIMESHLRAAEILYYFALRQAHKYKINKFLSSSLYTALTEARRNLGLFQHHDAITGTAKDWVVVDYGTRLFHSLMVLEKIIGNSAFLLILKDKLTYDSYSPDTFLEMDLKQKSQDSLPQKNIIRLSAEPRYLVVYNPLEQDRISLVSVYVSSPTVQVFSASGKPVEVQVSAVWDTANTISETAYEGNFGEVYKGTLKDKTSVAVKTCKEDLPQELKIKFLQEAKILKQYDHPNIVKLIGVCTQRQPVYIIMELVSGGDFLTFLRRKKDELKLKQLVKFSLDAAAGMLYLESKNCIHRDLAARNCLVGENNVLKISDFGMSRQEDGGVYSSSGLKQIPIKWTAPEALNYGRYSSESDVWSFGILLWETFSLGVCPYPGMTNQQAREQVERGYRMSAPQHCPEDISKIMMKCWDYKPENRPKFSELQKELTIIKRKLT

[10] = Huh-7, HUH7 KO (MAN2A1-FER knockout)
[11] = Huh-7, HUH7 WT (MAN2A1-FER positive)
[12] = A-172, MAN2A1-FER not present, same regimen
[13] = MAN2A1-FER negative cells, control 1/18
[14] = all tumors (PC3, A-172, HUH7), MAN2A1-FER present, controls 11/18

Row | Compound | IC50 ([1]; Tet+ (MAN2A1-FER-FLAG induced)) [nM] | IC50 ([1]; Tet− (no MAN2A1-FER-FLAG)) [nM] | IC50 ([2]; Tet+ (MAN2A1-FER-FLAG induced)) [nM] | IC50 ([2]; Tet− (no MAN2A1-FER-FLAG)) [nM] | IC50 [3, 10] [nM] | IC50 [3, 11] [nM] | IC50 [4] [nM] | reduction of tumor size ([5]; PC3, MAN2A1-FER not present, same regimen) [%] | reduction of final tumor size [5] [%] | reduction of tumor size [6, 12] [%] | reduction of final tumor size [6] [%] | reduction of tumor size ([7]; HUH7, MAN2A1-FER not present (knockout), same regimen) [%] | reduction of final tumor size [7] [%] | metastasis (mice with metastasis / mice) [8, 13] | metastasis (mice with metastasis / mice) [8, 14] | mortality of xenografted mice [8] | increase of tumor size [6, 12] [%] | blocking of phosphorylation of EGFR N-terminus by GST-MAN2A1-FER [9]
1 | C=CC(=O)Nc1cc2c(Nc3ccc(F)c(Cl)c3)ncnc2cc1OCCCN1CCOCC1 [canertinib] | 10.9 | 25.1 | 10.7 | 26.5 | 30.3 | 14.7 | < 15 | 32.0 | 85.0 | 19.2 | 73.2 | 40.2 | 81.7 | 2/18 | 0/18 | completely eliminated the mortality | – | –
2 | C[C@@H](Oc1cc(-c2cnn(C3CCNCC3)c2)cnc1N)c1c(Cl)ccc(F)c1Cl [crizotinib] | 20.8 | 43.4 | 33.1 | 64.5 | 52.9 | 28.9 | – | – | 78.6 | – | 67.6 | – | 80.7 | 2/18 | 0/18 | completely eliminated the mortality | 4 | –
3 | FLKTIQEVAGYVLIALNTVER [peptide 3] | – | – | – | – | – | – | – | – | – | – | – | – | – | – | – | – | – | partially blocked
